Patent publication US10517889B2, “Modulators of SMAD7 expression” (Ionis Pharmaceuticals, Inc., priority 2017, dated 2019)

Key:
[1] = system: dog SMAD7 mRNA; test: Pharmacology: dog SMAD7 mRNA expression in liver, kidney, duodenum, ileum and colon after subcutaneous administration in beagle dogs (Example 8); assay type: in vivo; details: 30 mg/kg subcutaneous, necropsy, normalized to HPRT1
Experimental: (§1) There were 4 animals per group.
The pharmacological activity of the Ionis oligonucleotides in dogs was assessed by measuring dog SMAD7 mRNA expression in liver, kidney, duodenum, ileum, and colon at necropsy. All the human ASOs used are complementary to dog SMAD7 mRNA.
Tissue samples from all dogs were analyzed for SMAD7 mRNA expression using the primer probe set RTS34649 (forward sequence […], designated SEQ ID NO: 2740; reverse sequence […], designated SEQ ID NO: 2741; probe sequence […], designated SEQ ID NO: 2742), which was normalized to mRNA levels of the housekeeping gene, HPRT1. One-way ANOVA with Dunnet's comparison test was used for statistical analysis.

[2] = system: human peripheral blood mononuclear cells (PBMCs); test: Human PBMC activation assay, cytokine levels (IL-10, IL-6, MCP-1, TNF-α) in supernatant after 24 hours (Example 9); details: human PBMC supernatant after 24 hours
Experimental: Ionis SMAD7 oligonucleotides were tested in an in vitro assay for potential immunostimulatory properties in an in vitro human peripheral blood mononuclear cell (PBMC) activation assay.
Blood samples were collected from healthy human volunteers in heparinized vials and mixed well. Human PBMCs were isolated by gradient centrifugation using Ficoll-Histopaque. The cells were washed, counted and resuspended in medium. The PBMCs were plated in a 24-well culture plate and various concentrations of oligonucleotides were added to the media. An oligonucleotide historically known to promote an inflammatory response was used as a positive control, whereas an oligonucleotide known not to be pro-inflammatory was used as a negative control. […] The supernatants were collected after 24 hours and analyzed for cytokine levels using MSD platform.

[3] = Hematology assays after subcutaneous administration in beagle dogs (Example 8); assay type: in vivo; details: 30 mg/kg subcutaneous days 1, 3, 5, 8, 15, 22, 29
Experimental: as §1
Blood samples were collected from the cephalic vein or saphenous vein of each animal. About 0.5 mL of blood samples was put into tubes containing the potassium salt of EDTA. Blood obtained from all dog groups was measured using an ADVIA2120i hematology analyzer for measurements of the various blood cells, as well as other hematology markers.

[4] = Plasma chemistry markers after subcutaneous administration in beagle dogs (Example 8); details: 30 mg/kg subcutaneous days 1, 3, 5, 8, 15, 22, 29, plasma at day 31
[5] = Hematology assays after oral gavage in CD-1 mice (Example 7); assay type: in vivo; parameters: RBC: unit not given here; details: 500 mg/kg oral gavage once daily for 4 weeks
Experimental: (§2) Groups of 7-8 week old male CD-1 mice were given an oral gavage dose once daily for 4 weeks of 500 mg/kg of Ionis SMAD7 oligonucleotides. Each group contained 8 mice. One group of male CD-1 mice was administered saline by oral gavage daily.
Blood obtained from all mouse groups was measured by an ADVIA2120i hematology analyzer (Siemens, USA) for measurements of the various blood cells, as well as other hematology markers. None of the Ionis SMAD7 oligonucleotides caused changes in the levels of any of the hematology markers outside the expected range for antisense oligonucleotides.

[6] = Body and organ weights after oral gavage in CD-1 mice (Example 7); assay type: in vivo; details: 500 mg/kg oral gavage once daily for 4 weeks, end of study
Experimental: as §2
Final body weights were measured at the end of the study. There was no significant difference in the body weight of the mice treated with antisense oligonucleotide compared to the control.
None of the Ionis SMAD7 oligonucleotides caused any changes in organ weights outside the expected range for antisense oligonucleotides.

[7] = Body and organ weights after subcutaneous administration in beagle dogs (Example 8); assay type: in vivo; details: 30 mg/kg subcutaneous days 1, 3, 5, 8, 15, 22, 29, end of study
Experimental: as §1
Body weights as well as kidney, spleen, liver (with gall bladder), mesenteric lymph node, heart, and thymus weights were measured at the end of the study. […] Ionis SMAD7 oligonucleotides that caused any changes in organ weights outside the expected range for antisense oligonucleotides were excluded from further studies.

829994 (GGAGGCAGGGCCGCGA; 3-10-3 cEt gapmer, further chemistry not given here) [compound 829994]
% inhibition of SMAD7 mRNA expression (compared to control), Distal colon ([1]; distal colon): 29% | % inhibition of SMAD7 mRNA expression (compared to control), Duodenum ([1]; duodenum): 2% | % inhibition of SMAD7 mRNA expression (compared to control), Ileum ([1]; ileum): 32% | % inhibition of Smad7 mRNA expression (compared to control), Kidney ([1]; kidney): 0% | % inhibition of Smad7 mRNA expression (compared to control), Liver ([1]; liver): 0% | % inhibition of SMAD7 mRNA expression (compared to control), Proximal colon ([1]; proximal colon): 34% | Levels of IL-6 ([2]; 0.0128 μM oligonucleotide): 4.1 pg/mL | Levels of IL-10 ([2]; 0.0128 μM oligonucleotide): 2.0 pg/mL | Levels of MCP-1 ([2]; 0.0128 μM oligonucleotide): 299.8 pg/mL | Levels of TNF-α ([2]; 0.0128 μM oligonucleotide): 2.5 pg/mL | Levels of IL-6 ([2]; 0.064 μM oligonucleotide): 3.8 pg/mL | Levels of IL-10 ([2]; 0.064 μM oligonucleotide): 1.8 pg/mL | Levels of MCP-1 ([2]; 0.064 μM oligonucleotide): 379.8 pg/mL | Levels of TNF-α ([2]; 0.064 μM oligonucleotide): 2.9 pg/mL | Levels of IL-6 ([2]; 0.32 μM oligonucleotide): 4.5 pg/mL | Levels of IL-10 ([2]; 0.32 μM oligonucleotide): 1.8 pg/mL | Levels of MCP-1 ([2]; 0.32 μM oligonucleotide): 489.7 pg/mL | Levels of TNF-α ([2]; 0.32 μM oligonucleotide): 3.0 pg/mL | Levels of IL-6 ([2]; 1.6 μM oligonucleotide): 15.9 pg/mL | Levels of IL-10 ([2]; 1.6 μM oligonucleotide): 5.2 pg/mL | Levels of MCP-1 ([2]; 1.6 μM oligonucleotide): 1300.0 pg/mL | Levels of TNF-α ([2]; 1.6 μM oligonucleotide): 8.0 pg/mL | Levels of IL-6 ([2]; 8 μM oligonucleotide): 202.5 pg/mL | Levels of IL-10 ([2]; 8 μM oligonucleotide): 8.0 pg/mL | Levels of MCP-1 ([2]; 8 μM oligonucleotide): 3370.0 pg/mL | Levels of TNF-α ([2]; 8 μM oligonucleotide): 63.2 pg/mL | Levels of IL-6 ([2]; 40 μM oligonucleotide): 66.1 pg/mL | Levels of IL-10 ([2]; 40 μM oligonucleotide): 4.3 pg/mL | Levels of MCP-1 ([2]; 40 μM oligonucleotide): 1998.4 pg/mL | Levels of TNF-α ([2]; 40 μM oligonucleotide): 32.3 pg/mL | Levels of IL-6 ([2]; 200 μM oligonucleotide): 97.1 pg/mL | Levels of IL-10 ([2]; 200 μM oligonucleotide): 3.8 pg/mL | Levels of MCP-1 ([2]; 200 μM oligonucleotide): 391.7 pg/mL | Levels of TNF-α ([2]; 200 μM oligonucleotide): 28.6 pg/mL | Basophils [3]: 0.5% | Eosinophils [3]: 1.8% | Hematocrit [3]: 44% | Hemoglobin [3]: 15.3 g/dL | Lymphocytes [3]: 26% | MCH [3]: 23.2 pg | MCHC [3]: 35.1 g/dL | MCV [3]: 66 fL | Monocytes [3]: 6.3% | Neutrophils [3]: 65% | PLT [3]: 287 ^3/μL | RBC [3]: 6.6 ^6/L | Reticulocytes [3]: 0.9% | WBC [3]: 12.5 ^3/μL | ALT [4]: 62 IU/L | AST [4]: 52 IU/L | Albumin [4]: 3.1 g/dL | BUN [4]: 15.4 mg/dL | Bilirubin [4]: 0.1 mg/dL | Creatine [4]: 0.7 mg/dL | Basophils [5]: 0.01 10^3/μL | Eosinophils [5]: 0.09 10^3/μL | Hematocrit [5]: 51.5% | Hemoglobin [5]: 15.2 g/dL | Lymphocytes [5]: 80.4% | MCH [5]: 15.1 pg | MCHC [5]: 29.5 g/dL | MCV [5]: 51.2 fL | Monocytes [5]: 0.10 10^3/μL | Neutrophils [5]: 14.0% | RBC [5]: 10.1 | Reticulocytes [5]: 3.0% | WBC [5]: 4.1 10^3/μL | platelets [5]: 1219 10^3/μL | Body weight [6]: 35 g | Heart weight [6]: 0.18 g | Kidneys weight [6]: 0.62 g | Liver with gallbladder weight [6]: 2.02 g | Spleen weight [6]: 0.11 g | Body weight [7]: 7335 g | Heart weight [7]: 57.9 g | Kidney weight [7]: 39.1 g | Liver weight [7]: 250.0 g | Mesenteric LN weight [7]: 9.0 g | Spleen weight [7]: 22.8 g | Thymus weight [7]: 6.3 g
